Key:
[1] = tested on: Parkinson's disease patients; conditions: 1 mg immediate release rasagiline added to pramipexole averaging 1.5 mg per day; cited from earlier work
[2] = tested on: dopamine levels in mouse brain; assay: In vivo study of drugs in MPTP mice model of Parkinson's disease, striatal dopamine by HPLC; conditions: IP daily 12 days, rasagiline 0.15 mg/Kg, pramipexole 0.12, 0.1, 0.075 mg/Kg, alone or combined
Procedure: Male C57B1/6 mice weighing 20+/−1 g are used (6-10 mice per group). MPTP is administrated by intraperitonealy (IP) injection at a dose of 40 mg/Kg per day for 5 days. Controls are naïve untreated mice injected with saline, and MPTP treated mice injected with saline (no drug treatment). Drugs, rasagiline (0.15 mg/Kg) and pramipexole (3 different doses of 0.12, 0.1 and 0.075 mg/Kg), are given alone or in 3 fixed dose combinations of rasagiline and pramipexole. The fixed dose combinations are composed of rasagiline at a constant dose of 0.15 mg/Kg and pramipexole at 3 different doses as indicated above. Both drugs are dissolved together at saline from their stock solutions to give the final desired combination dose. The application of the drugs is done daily intraperitonealy (IP) injection 30 minutes before MPTP administration. […] The effect of the treatments is assessed by measurement of dopamine and its metabolites (dihydroxyphenylacetic acid and Homovanillic acid) in left and right striatum together taken from the mice at the end of the experiment. […]
Striatum tissue samples are homogenized in ice in 500 μl homogenization buffer (0.1M perchloric acid, 0.02% EDTA and 1% ETOH) using OMNI Tip homogenizing kit of OMNI International (intermediate speed, 3×10 seconds with 5 seconds intervals). […] The supernatants are transferred into fresh tubes and Dopamine content is analyzed by HPLC. […]

C#CCN[C@@H]1CCc2ccccc21 [rasagiline]
combined effect on total UPDRS score, reduction compared to placebo [1]: 2.4 UPDRS points | effect of treatment on Dopamine levels compared to saline [2]: very low

From patent US9504657B2, “Fixed dose combination therapy of Parkinson's disease” (PHARMA TWO B LTD., priority 2012, dated 2016)
